Experimental data published in publication PMC10746543, “Design principles for cyclin K molecular glue degraders” (Nature Chemical Biology, 2023).
Several values for one entry are separate records, joined by “and”; a condition that tells them apart may be missing. Equal values may be shown once. Read-outs that look alike come from different tables or passages of the source. One block for each compound: values may come before it.

Key:
HEK293T cells = test: Drug sensitivity assay (CellTiter-Glo viability) with or without MLN4924 pretreatment; type: cell-based, human; conditions: for EC50: Homo sapiens, HEK-293T; for Toxicity rescue: MLN4924-mediated cytotoxicity rescue, 10 µM used where n.d.
In short: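 Cas9-expressing HEK293T cells receive either vehicle or 100 nM MLN4924, then compounds 2 h afterwards. After three days, luminescence-based viability is measured and calculated relative to DMSO.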

CDK13 = molecular target: T1, CDK13 (Homo sapiens, UniProt Q14004+Q16531); test: Label-free quantitative mass spectrometry in MDA-MB-231 cells, CDK13; type: cell-based; conditions: for CDK13 peptide count: label-free quantitative MS, replicate values; for CDK13 peptide count (DMSO-normalised): normalised to DMSO = 1, replicate values
T1 construct: endogenous in cells; host or cells: MDA-MB-231
T1 sequence (Q14004 whole entry): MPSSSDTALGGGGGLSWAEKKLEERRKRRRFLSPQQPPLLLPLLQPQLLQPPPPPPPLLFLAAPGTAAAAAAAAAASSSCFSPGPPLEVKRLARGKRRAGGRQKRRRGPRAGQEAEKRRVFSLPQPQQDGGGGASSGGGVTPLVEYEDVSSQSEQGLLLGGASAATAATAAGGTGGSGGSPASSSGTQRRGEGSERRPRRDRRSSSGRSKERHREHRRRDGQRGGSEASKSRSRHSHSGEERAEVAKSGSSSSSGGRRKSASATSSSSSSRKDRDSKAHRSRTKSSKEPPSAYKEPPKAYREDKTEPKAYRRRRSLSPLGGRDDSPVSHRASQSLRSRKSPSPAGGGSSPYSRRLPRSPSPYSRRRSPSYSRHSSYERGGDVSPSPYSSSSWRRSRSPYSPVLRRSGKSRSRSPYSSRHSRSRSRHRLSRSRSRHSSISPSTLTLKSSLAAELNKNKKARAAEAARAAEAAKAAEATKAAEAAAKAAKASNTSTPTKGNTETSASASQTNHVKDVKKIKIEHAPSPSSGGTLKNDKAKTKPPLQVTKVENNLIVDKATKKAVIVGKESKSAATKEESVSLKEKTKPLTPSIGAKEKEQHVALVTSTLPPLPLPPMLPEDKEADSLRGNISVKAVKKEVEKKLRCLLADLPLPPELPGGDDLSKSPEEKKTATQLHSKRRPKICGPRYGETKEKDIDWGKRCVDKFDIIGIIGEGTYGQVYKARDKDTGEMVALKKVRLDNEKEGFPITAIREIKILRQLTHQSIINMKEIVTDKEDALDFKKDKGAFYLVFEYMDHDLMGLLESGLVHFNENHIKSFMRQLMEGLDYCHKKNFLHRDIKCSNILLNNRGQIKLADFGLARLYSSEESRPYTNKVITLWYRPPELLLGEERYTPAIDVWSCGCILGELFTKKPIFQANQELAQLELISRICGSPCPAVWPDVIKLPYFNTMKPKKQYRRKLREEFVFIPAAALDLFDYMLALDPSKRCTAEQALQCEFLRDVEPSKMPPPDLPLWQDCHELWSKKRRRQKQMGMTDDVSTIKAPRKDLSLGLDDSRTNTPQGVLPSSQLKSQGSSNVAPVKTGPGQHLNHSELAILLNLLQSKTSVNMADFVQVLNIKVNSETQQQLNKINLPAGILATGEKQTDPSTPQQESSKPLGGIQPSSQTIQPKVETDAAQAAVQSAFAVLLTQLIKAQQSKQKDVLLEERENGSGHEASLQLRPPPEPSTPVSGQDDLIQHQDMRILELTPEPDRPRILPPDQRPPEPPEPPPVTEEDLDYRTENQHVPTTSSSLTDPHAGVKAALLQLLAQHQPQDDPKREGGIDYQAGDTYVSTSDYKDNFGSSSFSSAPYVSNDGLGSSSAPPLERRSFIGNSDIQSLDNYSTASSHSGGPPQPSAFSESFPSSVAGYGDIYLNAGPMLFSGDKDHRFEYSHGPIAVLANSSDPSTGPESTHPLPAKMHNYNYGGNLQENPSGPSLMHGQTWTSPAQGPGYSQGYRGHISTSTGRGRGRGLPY
T1 sequence (O75909 whole entry partner): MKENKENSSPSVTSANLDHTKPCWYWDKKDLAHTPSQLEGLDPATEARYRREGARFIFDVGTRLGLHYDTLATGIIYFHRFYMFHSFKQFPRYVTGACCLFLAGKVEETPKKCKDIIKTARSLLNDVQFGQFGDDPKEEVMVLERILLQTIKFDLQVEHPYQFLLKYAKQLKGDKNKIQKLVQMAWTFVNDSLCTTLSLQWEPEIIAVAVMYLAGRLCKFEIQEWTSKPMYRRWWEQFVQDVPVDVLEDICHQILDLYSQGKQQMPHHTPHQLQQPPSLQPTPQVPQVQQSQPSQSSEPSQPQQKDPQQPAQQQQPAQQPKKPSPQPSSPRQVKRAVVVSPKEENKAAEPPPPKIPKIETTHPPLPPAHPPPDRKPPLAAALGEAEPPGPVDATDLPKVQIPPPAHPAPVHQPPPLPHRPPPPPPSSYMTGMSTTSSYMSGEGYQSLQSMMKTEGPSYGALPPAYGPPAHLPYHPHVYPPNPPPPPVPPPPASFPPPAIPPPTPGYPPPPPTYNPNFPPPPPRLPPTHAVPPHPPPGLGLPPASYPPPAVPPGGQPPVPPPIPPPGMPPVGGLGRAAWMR
T1 sequence (Q16531 2-1140 limits assumed): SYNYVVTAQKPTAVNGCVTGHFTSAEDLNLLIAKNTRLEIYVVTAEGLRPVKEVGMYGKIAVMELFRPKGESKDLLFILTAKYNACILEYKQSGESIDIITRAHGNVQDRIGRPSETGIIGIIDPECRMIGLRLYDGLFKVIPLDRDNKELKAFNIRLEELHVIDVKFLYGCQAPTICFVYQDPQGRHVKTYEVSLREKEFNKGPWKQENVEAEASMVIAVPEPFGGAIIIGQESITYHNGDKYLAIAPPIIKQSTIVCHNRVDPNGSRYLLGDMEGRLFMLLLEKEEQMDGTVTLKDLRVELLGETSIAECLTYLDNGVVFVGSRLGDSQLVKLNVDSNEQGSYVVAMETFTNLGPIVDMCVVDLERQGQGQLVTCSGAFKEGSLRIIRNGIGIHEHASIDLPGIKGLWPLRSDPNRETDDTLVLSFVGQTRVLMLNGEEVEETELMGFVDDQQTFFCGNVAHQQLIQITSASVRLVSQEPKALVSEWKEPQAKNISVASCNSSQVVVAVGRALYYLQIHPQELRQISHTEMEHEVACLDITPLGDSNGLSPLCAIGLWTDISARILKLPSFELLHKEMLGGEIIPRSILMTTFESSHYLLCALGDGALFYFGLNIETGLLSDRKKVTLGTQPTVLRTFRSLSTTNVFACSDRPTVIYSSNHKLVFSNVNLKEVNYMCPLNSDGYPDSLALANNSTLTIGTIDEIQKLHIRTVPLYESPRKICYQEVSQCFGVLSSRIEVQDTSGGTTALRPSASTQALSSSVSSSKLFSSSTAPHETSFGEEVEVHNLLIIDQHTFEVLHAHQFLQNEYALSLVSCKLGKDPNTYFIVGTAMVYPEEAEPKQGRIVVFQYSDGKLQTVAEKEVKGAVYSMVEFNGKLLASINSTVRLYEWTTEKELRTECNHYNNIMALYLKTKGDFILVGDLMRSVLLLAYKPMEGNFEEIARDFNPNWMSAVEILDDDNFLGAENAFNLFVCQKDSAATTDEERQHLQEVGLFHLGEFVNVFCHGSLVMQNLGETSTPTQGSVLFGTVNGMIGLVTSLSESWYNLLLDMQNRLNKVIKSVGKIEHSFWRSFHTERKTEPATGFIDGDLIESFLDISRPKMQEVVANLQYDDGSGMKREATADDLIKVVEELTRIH
Description: MDA-MB-231 cells were treated with DMSO or a cyclin K degrader compound at 1 µM for 5 h. Cells were collected by centrifugation and washed with phosphate-buffered saline before snap freezing in liquid nitrogen. Cells were lysed by addition of lysis buffer (8 M urea, 50 mM NaCl, 50 mM 4-(2-hydroxyethyl)-1-piperazineethanesulfonic acid (EPPS) pH 8.5, and protease and phosphatase inhibitors) and homogenization by bead beating (BioSpec) for three repeats of 30 s at 2,400 rpm. Bradford assay was used to determine the final protein concentration in the clarified cell lysate. Then 50 µg of protein for each sample was reduced, alkylated and precipitated using methanol/chloroform as previously described, and the resulting washed precipitated protein was allowed to air dry. Precipitated protein was resuspended in 4 M urea, 50 mM HEPES pH 7.4, followed by dilution to 1 M urea with the addition of 200 mM EPPS, pH 8. Proteins were first digested with LysC (1:50; enzyme:protein) for 12 h at room temperature. The LysC digestion was diluted to 0.5 M urea with 200 mM EPPS pH 8 followed by digestion with trypsin (1:50; enzyme:protein) for 6 h at 37 °C. Sample digests were acidified with formic acid to a pH of 2–3 before desalting using C18 solid phase extraction plates (SOLA, Thermo Fisher Scientific). Desalted peptides were dried in a vacuum-centrifuged and reconstituted in 0.1% formic acid for liquid chromatography–mass spectrometry analysis.
Data were collected using a TimsTOF Pro2 (Bruker Daltonics) coupled to a nanoElute LC pump (Bruker Daltonics) via a CaptiveSpray nano-electrospray source. Peptides were separated on a reversed-phase C18 column (25 cm × 75 µm inner diameter, […], IonOpticks) containing an integrated captive spray emitter. Peptides were separated using a 50 min gradient of 2–30% buffer B (acetonitrile in 0.1% formic acid) with a flow rate of 250 nl min^−1 and column temperature maintained at 50 °C.
Data-dependent acquisition (DDA) was performed in Parallel Accumulation-Serial Fragmentation (PASEF) mode to determine effective ion mobility windows for downstream diaPASEF data collection. The ddaPASEF parameters included: 100% duty cycle using accumulation and ramp times of 50 ms each, one Trapped Ion Mobility Spectrometry(TIMS)-MS scan and ten PASEF ramps per acquisition cycle. The TIMS-MS survey scan was acquired between 100 m/z and 1,700 m/z and 1/K0 of 0.7–1.3 V s cm^−2. Precursors with one to five charges were selected, and those that reached an intensity threshold of 20,000 arbitrary units were actively excluded for 0.4 min. The quadrupole isolation width was set to 2 m/z for m/z < 700 and 3 m/z for m/z > 800, with the m/z between 700 m/z and 800 m/z being interpolated linearly. […] To perform diaPASEF, the precursor distribution in the DDA m/z-ion mobility plane was used to design an acquisition scheme for data-independent acquisition (DIA) data collection that included two windows in each 50 ms diaPASEF scan. Data were acquired using 16 of these 25 Da precursor double window scans (creating 32 windows) that covered the diagonal scan line for doubly and triply charged precursors, with singly charged precursors able to be excluded by their position in the m/z-ion mobility plane. These precursor isolation windows were defined between 400 m/z and 1,200 m/z and 1/K0 of 0.7–1.3 V s cm^−2.
DirectDIA mode includes first extracting the DIA data into a collection of MS2 spectra which are searched using Spectronaut’s Pulsar search engine. The search results are then used to generate a spectral library which is then employed for the targeted analysis of the DIA data. MS/MS spectra were searched against a Swissprot human database (January 2021). Database search criteria largely followed the default settings for directDIA including: tryptic with two missed cleavages, fixed carbomidomethylation of cysteine, and variable oxidation of methionine and acetylation of protein N-termini and precursor Q-value (FDR) cut-off of 0.01. […]

CDK12–cyclin K = CDK12–cyclin K (Homo sapiens, UniProt Q9NYV4); test: Lanthascreen kinase binding assay, CDK12; conditions: for Lanthascreen raw signal, sheet CDK12: duplicates
Chain of CDK12–cyclin K (Q9NYV4 713-1052): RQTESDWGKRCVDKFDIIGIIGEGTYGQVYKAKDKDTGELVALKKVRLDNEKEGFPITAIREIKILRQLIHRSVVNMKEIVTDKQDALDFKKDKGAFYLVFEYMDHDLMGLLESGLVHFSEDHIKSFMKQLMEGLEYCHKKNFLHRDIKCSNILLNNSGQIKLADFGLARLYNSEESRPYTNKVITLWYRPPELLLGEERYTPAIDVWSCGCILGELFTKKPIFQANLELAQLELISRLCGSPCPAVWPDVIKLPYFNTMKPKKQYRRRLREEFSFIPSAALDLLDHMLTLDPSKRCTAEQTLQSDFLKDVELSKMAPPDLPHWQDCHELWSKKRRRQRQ
Chain of CDK12–cyclin K (O75909 1-267 partner limits assumed): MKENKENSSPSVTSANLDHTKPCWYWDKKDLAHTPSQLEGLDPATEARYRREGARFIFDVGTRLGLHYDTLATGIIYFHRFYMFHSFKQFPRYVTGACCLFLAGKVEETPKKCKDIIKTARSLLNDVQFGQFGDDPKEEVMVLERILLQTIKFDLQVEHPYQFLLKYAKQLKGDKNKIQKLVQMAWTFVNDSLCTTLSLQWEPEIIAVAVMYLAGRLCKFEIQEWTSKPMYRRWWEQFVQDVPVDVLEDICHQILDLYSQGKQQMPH
Description: Lanthascreen experiments were performed using commercially available reagents (Thermo Fisher) and according to the manufacturer’s instructions.

[1] = Supplementary Table 2, HEK293T viability, 72 h, compound alone, read-out: Cellular assays EC50
[2] = compound 0.038147 nM, series r37
[3] = compound 0.152588 nM, series r37
[4] = compound 0.610352 nM, series r37
[5] = compound 9.76563 nM, series r37
[6] = compound 39.0625 nM, series r37

CDK13 peptide count (CDK13): 225.708 and 137.684
CDK13 peptide count (DMSO-normalised) (CDK13): 0.3358 and 0.2116
Lanthascreen raw signal, sheet CDK12 (CDK12–cyclin K; [2]): 0.01304 and 0.01325
Lanthascreen raw signal, sheet CDK12 (CDK12–cyclin K; compound 0.038147 nM, series r49): 0.007695 and 0.007446
Lanthascreen raw signal, sheet CDK12 (CDK12–cyclin K; [3]): 0.01428 and 0.01359
Lanthascreen raw signal, sheet CDK12 (CDK12–cyclin K; compound 0.152588 nM, series r49): 0.009378 and 0.01005
Lanthascreen raw signal, sheet CDK12 (CDK12–cyclin K; [4]): 0.015 and 0.0141
Lanthascreen raw signal, sheet CDK12 (CDK12–cyclin K; compound 0.610352 nM, series r49): 0.009165 and 0.0112
Lanthascreen raw signal, sheet CDK12 (CDK12–cyclin K; compound 0.76 nM, series r25): 0.01077 and 0.009668
Lanthascreen raw signal, sheet CDK12 (CDK12–cyclin K; compound 1.02544 nM, series r1): 0.009016 and 0.007993
Lanthascreen raw signal, sheet CDK12 (CDK12–cyclin K; compound 3.15521 nM, series r1): 0.009443 and 0.008694
Lanthascreen raw signal, sheet CDK12 (CDK12–cyclin K; compound 4.57247 nM, series r25): 0.009656 and 0.009902
Lanthascreen raw signal, sheet CDK12 (CDK12–cyclin K; compound 9.46563 nM, series r1): 0.008963 and 0.008112
Lanthascreen raw signal, sheet CDK12 (CDK12–cyclin K; [5]): 0.01368 and 0.01299
Lanthascreen raw signal, sheet CDK12 (CDK12–cyclin K; compound 9.76563 nM, series r49): 0.009408 and 0.009212
Lanthascreen raw signal, sheet CDK12 (CDK12–cyclin K; compound 13.7174 nM, series r25): 0.01017 and 0.01059
Lanthascreen raw signal, sheet CDK12 (CDK12–cyclin K; compound 31.5521 nM, series r1): 0.006752 and 0.007539
Lanthascreen raw signal, sheet CDK12 (CDK12–cyclin K; [6]): 0.01193 and 0.01223
Lanthascreen raw signal, sheet CDK12 (CDK12–cyclin K; compound 39.0625 nM, series r49): 0.009305 and 0.008784
Lanthascreen raw signal, sheet CDK12 (CDK12–cyclin K; compound 41.1523 nM, series r25): 0.009709 and 0.009531
Lanthascreen raw signal, sheet CDK12 (CDK12–cyclin K; compound 99.3891 nM, series r1): 0.006201 and 0.006527
Lanthascreen raw signal, sheet CDK12 (CDK12–cyclin K; compound 123.457 nM, series r25): 0.008131 and 0.007441
Lanthascreen raw signal, sheet CDK12 (CDK12–cyclin K; compound 156.25 nM, series r37): 0.00959 and 0.00993
Lanthascreen raw signal, sheet CDK12 (CDK12–cyclin K; compound 156.25 nM, series r49): 0.007819 and 0.007288
Lanthascreen raw signal, sheet CDK12 (CDK12–cyclin K; compound 315.521 nM, series r1): 0.007121 and 0.006383
Lanthascreen raw signal, sheet CDK12 (CDK12–cyclin K; compound 370.37 nM, series r25): 0.007201 and 0.007104
Lanthascreen raw signal, sheet CDK12 (CDK12–cyclin K; compound 625 nM, series r37): 0.007458 and 0.007383
Lanthascreen raw signal, sheet CDK12 (CDK12–cyclin K; compound 625 nM, series r49): 0.006302 and 0.006427
Lanthascreen raw signal, sheet CDK12 (CDK12–cyclin K; compound 2500 nM, series r37): 0.006338 and 0.006017
Lanthascreen raw signal, sheet CDK12 (CDK12–cyclin K; compound 2500 nM, series r49): 0.006233 and 0.005662
Lanthascreen raw signal, sheet CDK12 (CDK12–cyclin K; compound 3155.21 nM, series r1): 0.005736 and 0.005607
Lanthascreen raw signal, sheet CDK12 (CDK12–cyclin K; compound 3333.33 nM, series r25): 0.00631 and 0.006815
Lanthascreen raw signal, sheet CDK12 (CDK12–cyclin K; compound 10000 nM, series r25): 0.004829 and 0.005941
Lanthascreen raw signal, sheet CDK12 (CDK12–cyclin K; compound 10000 nM, series r37): 0.006588 and 0.005825
Lanthascreen raw signal, sheet CDK12 (CDK12–cyclin K; compound 10000 nM, series r49): 0.006042 and 0.005923
Lanthascreen raw signal, sheet CDK12 (CDK12–cyclin K; compound 10002 nM, series r1): 0.006385 and 0.006398
SMILES: CCC(CO)Nc1nc(NCc2ccc(-c3ccccn3)cc2)c2ncn(C(C)C)c2n1 (centres unmarked) [CR8, reference compound]
viability assay signal (normalized) (HEK293T cells; 2 nM, + MLN4924): 1.107 and 1.008
viability assay signal (normalized) (HEK293T cells; 2 nM, without MLN4924): 1.041 and 1.037
viability assay signal (normalized) (HEK293T cells; 4.69 nM, + MLN4924): 1.279 and 1.055
viability assay signal (normalized) (HEK293T cells; 4.69 nM, without MLN4924): 1.03 and 1.007
viability assay signal (normalized) (HEK293T cells; 11 nM, + MLN4924): 1.009 and 1.091
viability assay signal (normalized) (HEK293T cells; 11 nM, without MLN4924): 1.0171 and 1.083
viability assay signal (normalized) (HEK293T cells; 25.7 nM, + MLN4924): 1.13 and 1.18
viability assay signal (normalized) (HEK293T cells; 25.7 nM, without MLN4924): 0.9174 and 1.057
viability assay signal (normalized) (HEK293T cells; 141 nM, + MLN4924): 1.076 and 1.102
viability assay signal (normalized) (HEK293T cells; 141 nM, without MLN4924): 0.4857 and 0.5122
viability assay signal (normalized) (HEK293T cells; 331 nM, + MLN4924): 0.8705 and 0.873
viability assay signal (normalized) (HEK293T cells; 331 nM, without MLN4924): 0.3951 and 0.3542
viability assay signal (normalized) (HEK293T cells; 4270 nM, + MLN4924): 0.4449 and 0.4383
viability assay signal (normalized) (HEK293T cells; 4270 nM, without MLN4924): 0.4332 and 0.4197
viability assay signal (normalized) (HEK293T cells; 10000 nM, + MLN4924): 0.4134 and 0.5002
viability assay signal (normalized) (HEK293T cells; 10000 nM, without MLN4924): 0.424 and 0.4316
EC50 (HEK293T cells; Supplementary Fig. 5, HEK293T, CellTiter Glo, 72h, pre-treatment with 100 nM MLN4924, read-out: Viability EC50, with MLN4924): 519 nM
EC50 (HEK293T cells; Supplementary Fig. 5, HEK293T, CellTiter Glo, 72h, read-out: Viability EC50, no MLN4924): 78 nM
EC50 (HEK293T cells; [1]): 159 nM
Toxicity rescue (HEK293T cells; Supplementary Table 2): 342%

SMILES: CC[C@H](CO)Nc1nc(NCc2nc3cc(Cl)c(Cl)cc3[nH]2)c2ncn(C(C)C)c2n1 [DS17]
EC50 (HEK293T cells; [1]): 93 nM
Toxicity rescue (HEK293T cells; Supplementary Table 2): 53%
CDK13 peptide count (CDK13): 156.014 and 130.628
CDK13 peptide count (DMSO-normalised) (CDK13): 0.2321 and 0.2007
CDK inhibitory selectivity, result in words (CDK12–cyclin K; Lanthascreen across CDK2/9/12): CDK12 selective
IC50 (CDK12–cyclin K; Supplementary Table 2, read-out: Lanthascreen IC50 [nM] CDK12): 117 nM
Lanthascreen raw signal, sheet CDK12 (CDK12–cyclin K; [2]): 0.01439 and 0.01466
Lanthascreen raw signal, sheet CDK12 (CDK12–cyclin K; [3]): 0.01355 and 0.01465
Lanthascreen raw signal, sheet CDK12 (CDK12–cyclin K; [4]): 0.01399 and 0.01278
Lanthascreen raw signal, sheet CDK12 (CDK12–cyclin K; [5]): 0.01302 and 0.01264
Lanthascreen raw signal, sheet CDK12 (CDK12–cyclin K; [6]): 0.01048 and 0.01099
Lanthascreen raw signal, sheet CDK12 (CDK12–cyclin K; compound 156.25 nM, series r37): 0.008496 and 0.009307
Lanthascreen raw signal, sheet CDK12 (CDK12–cyclin K; compound 625 nM, series r37): 0.00749 and 0.007398
Lanthascreen raw signal, sheet CDK12 (CDK12–cyclin K; compound 2500 nM, series r37): 0.006169 and 0.00594
Lanthascreen raw signal, sheet CDK12 (CDK12–cyclin K; compound 10000 nM, series r37): 0.005029 and 0.005256
